Earlier results on 13 compounds are cited in patent publication US20060008512A1, “Composition and methods for improved animal performance” (priority 2004, published 2006).

The subject of series [1] is male Peterson broiler breeder chicks. As to conditions: 0.1% dietary, cited from earlier work.
The next series concerns suckling rat pups. As to conditions: 0.1% solution in mother's drinking water, birth to 24 days, cited from earlier work.
Series [2] deals with male rats. Conditions: treated from birth to day 25, cited from earlier work.
Series [3] has as its system growing cockerel and pullet chickens. Conditions: 10 mg/kg dietary thyroid hormone; cited from earlier work.
A further series concerns broiler chickens. As to conditions: finishing-phase T3 administration alone; cited from earlier work.
Series [4] has as its system pigs. As to conditions: 1,000 mg betaine/kg diet; cited from earlier work.
For a further series, the system named is dogs. As to conditions: approximately 5 mg biotin/10 kg body weight for 3 to 5 weeks; cited from earlier work.
Another series has as its system laying hens. Conditions: 20 to 40 mg corticosterone/kg diet; cited from earlier work.
Series [5] has as its system porcine thyroid follicles. Conditions: cited from earlier work.
The subject of series [6] is female Sprague-Dawley rats. As to conditions: fifteen days, cited from earlier work; for Concentration of reverse T3: control 71.7; for Concentration of T3: control 670.
In series [7] the test system is isolated porcine thyroid follicles. As to conditions: 10 microM of iodide, comparison value; cited from earlier work.
Another series relates to humans. Conditions: daily doses of 100 to 200 mg iodide (from potassium iodide) per person; cited from earlier work.
In another series the test system is White Leghorn hens. As to conditions: single i.m. injection releasing 60 mcg/kg body weight per day for 30 days, cited from earlier work.
The test system of series [8] is pigs. As to conditions: 5 or 8 mg iodide/kg feed for 3 months; cited from earlier work.
The conditions of series [9]: serum adjusted to 10 mM sodium salicylate; cited from earlier work.
Series [10] deals with male rats. As to conditions: 200 mg/kg body weight i.v.; blood 30-240 minutes later; cited from earlier work.
The next series relates to cockerels. As to conditions: fed from 1 day of age; by the 14th week; cited from earlier work.
The subject of series [11] is young male Nile tilapia fish. Conditions: 100 or 150 mg thiouracil/kg diet for 40 days; by 98 days; cited from earlier work.
For another series, the system named is neonatal male rats. Conditions: fed from birth to 24 days of age, cited from earlier work.
Another series relates to broiler breeder hen. Conditions: 50 mg/kg feed; days 11 and 12; cited from earlier work.

Read-outs that look alike come from different tables or passages of the source. Some results are limits rather than exact numbers.

Regarding `CCCc1cc(=O)[nH]c(=S)[nH]1` [6-propyl-2-thiouracil], in series [1] (8 to 14 or 10 to 16 weeks of age), the “Increase in testis weight” value is recorded as “about 35%”. The Testis weight in series [1] (8 to 14 weeks of age, control 20.0 g) is recorded as 27.7 g; in [1] (10 to 16 weeks of age, control 20.0 g), 27.7 g. The “Increase in mean testis weight at 28 weeks” value in series [1] (fed from 6 to 12 weeks of age) is recorded as 96%. The “Mean testis weight at 28 weeks” value in series [1] (fed from 6 to 12 weeks of age, control 20.0 g) is reported as 39.3 g. Further, in the series with suckling rat pups (at 180 days), the “Decline of average Leydig cell volume” value is recorded as “about 20%”. The “Increase in number of Leydig cells per testis” value in the series on suckling rat pups (at 180 days) was 69%. Moreover, in the series with suckling rat pups, the “Decline in number of hCG-binding sites (LH receptors)” value is on record as 50%. Moreover, the “Reduction of LH-stimulated testosterone production in Leydig cells” value with suckling rat pups was 55%. The “Increase of testis weight compared to controls” value in the series on male rats [2] (at 90 days) is listed as 40%; in the series on male rats [2] (at 135 days), 60%; in the series with male rats [2] (at 160 days), 80%.

On to `N[C@@H](Cc1cc(I)c(Oc2ccc(O)c(I)c2)c(I)c1)C(=O)O` [T3, 3,5,3′-triiodo-L-thyronine], for which, in [3], the “Reduction in body weight gain compared to controls” value is 55.24%. The “Reduction in body fat” value in the series with broiler chickens is 17-25%.

As for `C[N+](C)(C)CC(=O)O` [betaine], in the series with pigs [4], the “Decrease in feed conversion ratio” value was 7.93% and the “Increase in average daily gain” value is listed as 13.20%.

`O=C(O)CCCC[C@@H]1SC[C@@H]2NC(=O)N[C@@H]21` [biotin]: the Cases cured in the series with dogs was 60%.

Regarding `C[C@]12C[C@H](O)[C@H]3[C@@H](CCC4=CC(=O)CC[C@@]43C)[C@@H]1CC[C@@H]2C(=O)CO` [corticosterone], the “Laying hens with cessation of egg production” value in the series with laying hens is given as 98%.

In the case of `CCCCC/C=C\C/C=C\C/C=C\CC(I)C1CCCC(=O)O1` (stereo not drawn) [delta-iodolactone], the “Dose lower than iodide for comparable apoptosis” value in series [5] (0.05 to 0.5 microM delta-iodolactone) was “about 40 fold”.

Regarding `Cc1cc2c(C(C)C)c(O)c(O)c(C=O)c2c(O)c1-c1c(C)cc2c(C(C)C)c(O)c(O)c(C=O)c2c1O` [gossypol acetic acid], in series [6] (5 mg/kg/day), the “Concentration of reverse T3” value is 0.0372 ng/mL and the “Concentration of T3” value was 0.43 ng/mL. Further, in [6] (10 mg/kg/day), the “Concentration of reverse T3” value is 0.0242 ng/mL and the “Concentration of T3” value was 0.359 ng/mL.

`I` [iodide]: in series [5] (2 and 20 microM iodide), the Rate of apoptosis is 4-6%. Besides, the “Inhibitory effect of iodide on thyroid follicle proliferation” value in series [7] is given as 84±2%. Moreover, in the series with humans, the “Protection from radioactive iodide” value was “over 97%”.

For the compound `CCNC(=O)[C@@H]1CCCN1C(=O)[C@H](CCCNC(=N)N)NC(=O)[C@H](CC(C)C)NC(=O)[C@@H](CC(C)C)NC(=O)[C@H](Cc1ccc(O)cc1)NC(=O)[C@H](CO)NC(=O)[C@H](Cc1c[nH]c2ccccc12)NC(=O)[C@H](Cc1c[nH]cn1)NC(=O)[C@@H]1CCC(=O)N1` [leuprolide acetate], the Body weight result in the series with White Leghorn hens is “no body weight loss”. Besides, in the series with White Leghorn hens (second week), the Egg production was 3.5%.

Regarding `[I-].[K+]` [potassium iodide], in the series with pigs [8], the “Increase of iodine content in adipose tissue” value is 213%, the “Increase of iodine content in fresh muscle” value is recorded as 45%, the “Increase of iodine content in heart” value is reported as 124% and the “Increase of iodine content in kidneys” value is on record as 127%. In addition, in the series on pigs [8], the “Increase of iodine content in liver” value is listed as 207%.

As to `O=C([O-])c1ccccc1O.[Na+]` [sodium salicylate], the “Rise of free dialyzable fraction of T4 in vitro” value in series [9] is 125%. In the series on male rats [10], the “Decrease in T3” value is 60%, the “Decrease in plasma T4 level” value is on record as 20% and the “Increase in reverse T3” value is listed as 20%.

On to `O=c1cc[nH]c(=S)[nH]1` [thiouracil], for which the “Weights of testes relative to controls” value in the series on cockerels is given as “about 10 times”. For the same compound, the “Testis weight, gonadosomatic index, Sertoli, germ and Leydig cell numbers higher than control” value in series [11] is “approximately 100%”. In the series on neonatal male rats (at 100 days), the “Increase in testis size” value is 68%. For the same compound, the “Time for serum T4 and T3 to return to control levels after removal” value in the series with neonatal male rats is ≤ 15 days.

Regarding Nicarbazin, the Hatchability with broiler breeder hen is 31%.
